In one assay the target is T1, human RORγt LBD (Homo sapiens, UniProt P51449).
T1 construct: expressed in transfected cells; host or cells: HEK293T
T1 sequence (P51449 258-518): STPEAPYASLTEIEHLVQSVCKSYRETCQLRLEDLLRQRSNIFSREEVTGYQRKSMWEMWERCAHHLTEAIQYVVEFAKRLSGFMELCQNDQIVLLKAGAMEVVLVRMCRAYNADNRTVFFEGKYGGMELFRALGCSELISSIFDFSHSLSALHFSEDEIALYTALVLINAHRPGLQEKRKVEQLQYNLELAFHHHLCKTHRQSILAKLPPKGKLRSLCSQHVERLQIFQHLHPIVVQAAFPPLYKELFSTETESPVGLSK
Nature of the assay: RORγt (LBD) Reporter Assay (GAL4 luciferase, HEK293T). The assay is classed as cell-based. The following applies: HEK293T cells; for IC50: 24 hours with compound. The protocol: Compounds were assessed for RORgt functional modulation using either the RORgt ligand binding domain (LBD) reporter assay, or the RORgt full-length (FL) reporter assay.
A reporter assay was used to test functional activity of RORγt modulatory compounds on transcriptional activation driven by the RORγt LBD. Cells used in the assay were co-transfected with two constructs. The first construct, pBIND-RORγt LBD, contained the wild type human RORγt LBD fused to the DNA binding domain of the GAL4 protein. The second construct, pGL4.31 (Promega Cat no. C935A), contained multiple GAL4 responsive DNA elements upstream of firefly luciferase. […] The mutant construct was called pBIND-RORγt-AF2.
The pBIND vector contains the GAL4 DNA Binding Domain (GAL4 DBD) and the renilla luciferase gene under control of the SV40 promoter. Renilla luciferase expression serves as a control for transfection efficiency and cell viability.
The reporter assay was performed by transiently transfecting HEK293T cells with 5 μg of pBIND-RORγt LBD or pBIND-RORγt LBD-AF2 and 5 μg pGL4.31 (Promega Cat no. C935A) using Fugene 6 (Invitrogen Cat no. E2691) at a 1:6 ratio of DNA: Fugene 6 in a T-75 flask in which cells were at least 80% confluent. Twenty four hours after bulk transfection, cells were plated into 96-well plates at 50,000 cells/well in phenol-red free DMEM containing 5% Lipid Reduced FCS and Pen/Strep. Six hours after plating, cells were treated with compounds for 24 hours. Media was removed and cells were lysed with 50 μL 1× Glo Lysis Buffer (Promega). Dual Glo Luciferase Reagent (50 μL/well) was then added and firefly luciferase luminescence was read on an Envision after a ten minute incubation. Finally, Stop and Glo reagent (50 μL/well) was added and renilla luciferase luminescence was read on an Envision after a ten minute incubation. To calculate the effect of compounds on RORγt activity, the ratio of firefly to renilla luciferase was determined and plotted against compound concentration. Agonist compounds increase RORγt-driven luciferase expression, and antagonist or inverse agonist compounds decrease luciferase expression.

For assay [1], the target named is T2, human RORγt ligand binding domain (RORγt LBD) (Homo sapiens, UniProt P51449).
T2 construct: His-tag (N); TurboTEV protease cleavage site (ENLYFQG) (N); made in house; host or cells: E. coli (pHIS1, modified pET vector)
T2 sequence (P51449 with tags, fused parts or gaps): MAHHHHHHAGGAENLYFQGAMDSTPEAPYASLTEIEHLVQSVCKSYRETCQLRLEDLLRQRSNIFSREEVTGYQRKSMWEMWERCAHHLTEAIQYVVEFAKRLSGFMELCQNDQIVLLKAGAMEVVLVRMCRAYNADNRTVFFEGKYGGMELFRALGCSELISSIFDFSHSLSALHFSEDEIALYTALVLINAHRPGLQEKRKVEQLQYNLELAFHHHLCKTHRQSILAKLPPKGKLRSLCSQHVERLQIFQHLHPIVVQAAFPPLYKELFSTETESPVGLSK
The assay can be described thus: RORγt ThermoFluor assay (thermal shift binding affinity). As to conditions: 0.065 mg/mL RORγt, pH 7.0; estimated from concentration response curves. The protocol:
This approach is applicable to a wide variety of systems, and rigorous in theoretical interpretation through quantitation of equilibrium binding constants (KD).
The shift in the melting point described as a ΔTm is proportional to the concentration and affinity of the ligand. The compound potency may be compared as a rank order of either ΔTm values at a single compound concentration or in terms of KD values, estimated from concentration response curves.
ThermoFluor® experiments were carried out using instruments owned by Janssen Research and Discovery, L.L.C. through its acquisition of 3-Dimensional Pharmaceuticals, Inc. 1,8-ANS (Invitrogen) was used as a fluorescent dye. […]
Fluorescence was measured by continuous illumination with UV light (Hamamatsu LC6) supplied via fiber optic and filtered through a band-pass filter (380-400 nm; >6 OD cutoff). Fluorescence emission of the entire 384-well plate was detected by measuring light intensity using a CCD camera (Sensys, Roper Scientific) filtered to detect 500±25 nm, resulting in simultaneous and independent readings of all 384 wells. Images were collected at each temperature, and the sum of the pixel intensity in a given area of the assay plate was recorded versus temperature. […]

Assay [2] has as its system IL-17 production by CD4 T cells. The assay can be described thus: Human Th17 Assay. As to conditions: human CD4+ T cells under Th17 differentiation, 3 days, IL-17 in supernatant. The assay is classed as cell-based. The source says: The human Th17 assay tests the effect of RORγt modulatory compounds on IL-17 production by CD4 T cells under conditions which favor Th17 differentiation.
Total CD4^+ T cells were isolated from the peripheral blood mononuclear cells (PBMC) of healthy donors using a CD4^+ T cell isolation kit II, following the manufacturer's instructions (Miltenyi Biotec). Cells were resuspended in a medium of RPMI-1640 supplemented with 10% fetal bovine serum, penicillin, streptomycin, glutamate, and β-mercaptoethanol and were added to 96-well plates at 1.5×10^5 per 100 μL per well. 50 μL of compound at titrated concentrations in DMSO were added into each well at final DMSO concentration at 0.2%. Cells were incubated for 1 hour, then 50 μL of Th17 cell differentiation medium was added to each well. […] Supernatants were collected and the accumulated IL-17 in culture was measured by using MULTI-SPOT® Cytokine Plate following manufacture's instruction (Meso Scale Discovery). The plate was read using Sector Imager 6000, and IL-17 concentration was extrapolated from the standard curve. The IC50s were determined by GraphPad.

We go through five molecules from patent publication US9221804B2, “Secondary alcohol quinolinyl modulators of RORγt” (Janssen Pharmaceutica NV, priority 2013, dated 2015).

Each structure is given as a SMILES string.

In the case of `COc1nc2ccc(C(O)c3cnc(C)n3C)cc2c(Cl)c1Cc1ccc(F)cc1` (single isomer, unassigned) [Example 8b], the IC50 at human RORγt LBD was over 6 µM. Besides, at 6 µM the inhibition against human RORγt LBD (HEK-293T, 6 μM compound) was 31%. Besides, the Kd in assay [1] was 0.18 µM. On to `COc1nc2ccc(C(O)c3cnc(C)n3C)cc2c(Cl)c1Cc1ccc(F)cc1` (single isomer, unassigned) [Example 8c], for which the IC50 at human RORγt LBD was over 6 µM. Also, the Kd in assay [1] was 0.095 µM.

The molecule `COc1nc2ccc(C(O)c3cnnn3C)cc2c(Cl)c1Cc1ccc(-n2cccn2)cc1` (single isomer, unassigned) [Example 5c, (3-(4-(1H-Pyrazol-1-yl)benzyl)-4-chloro-2-methoxyquinolin-6-yl)(1-methyl-1H-1,2,3-triazol-5-yl)methanol] had an IC50 in assay [2] of 0.61 µM. Take `COc1nc2ccc(C(O)c3cnnn3C)cc2c(Cl)c1Cc1ccc(-n2cccn2)cc1` (single isomer, unassigned) [Example 5b, (3-(4-(1H-Pyrazol-1-yl)benzyl)-4-chloro-2-methoxyquinolin-6-yl)(1-methyl-1H-1,2,3-triazol-5-yl)methanol]: 1.5 µM corresponded to half-maximal inhibition in assay [2] (IC50). Turning to `COc1nc2ccc(C(O)c3cnc(C)n3C)cc2c(Cl)c1Cc1ccc(F)cc1` (centres unmarked) [Example 8a], the half-inhibitory concentration (IC50) on human RORγt LBD is over 6 µM.
